As usually defined, the IC50 is the midpoint of a concentration-inhibition curve. Lower therefore signals inhibition by little substance.

This test relates to NLRP3 inflammasome. Kind of test: IL-1β secretion assay. It is filed as cell-based. Conditions: Homo sapiens, THP-1, 3 h, PMA-differentiated THP-1 cells, 15 μM nigericin, HTRF. On the procedure: 10 μL supernatant was removed, and IL-1p levels were monitored using an HTRF assay (CisBio, #62IL1PEC) according to manufacturers' instructions. Viability and pyroptosis was monitored with the addition of PrestoBlue cell viability reagent (Life Technologies, #A13261) directly to the cell culture plate.
IC50 values were calculated from the plot of percentage of inhibition versus the inhibitor concentration by a logistics fit according to: y=A2+(A1−A2)/(1+(x/IC50)^p) where y is the %-inhibition at the inhibitor concentration, x. A1 is the lowest inhibition value, i.e. 0%, and A2 the maximum inhibition value, i.e. 100%. The exponent, p, is the Hill coefficient. The curve fitting was conducted with an internally developed software suite.
NLRP3-dependent IL-1β secretion was stimulated in PMA-differentiated THP-1 cells by the addition of nigericin, and cytokines were measured in the […] after 3 hours. As discussed above, activation of the NLRP3 inflammasome requires both an NF-kB-dependent priming step and the addition of a NLRP3 activator.
In general terms: Time-resolved FRET reads energy transfer from a long-lived donor to a nearby acceptor.
`CC(C)c1nn(CC(=O)N[C@H]2CCNC2)c(=O)c2cc3sc(Cl)cc3n12` [Ex 102, (S)-2-(2-Chloro-5-isopropyl-8-oxothieno[2′,3′:4,5]pyrrolo[1,2-d][1,2,4]triazin-7(8H)-yl)-N-(pyrrolidin-3-yl)acetamide] returned an IC50 of 886 nM. This lies in the sub-micromolar range. `CC(C)c1nn(CC(=O)NC23CC(C(=O)O)(C2)C3)c(=O)c2cc3sc(Cl)cc3n12` [Ex 123, 3-(2-(2-Chloro-5-isopropyl-8-oxothieno[2′,3′:4,5]pyrrolo[1,2-d][1,2,4]triazin-7(8H)-yl)acetamido)bicyclo[1.1.1]pentane-1-carboxylic acid] displayed an IC50 of 2080 nM. Molecule `Cc1nc2c(cc3c(=O)n(CC(=O)N[C@@H]4CCCN(C)C4)nc(C(C)C)n32)s1` [Ex 92, (R)-2-(5-Isopropyl-2-methyl-8-oxothiazolo[5′,4′:4,5]pyrrolo[1,2-d][1,2,4]triazin-7(8H)-yl)-N-(1-methylpiperidin-3-yl)acetamide] gave an IC50 of 65.2 nM. Then `CC(C)c1nn(CC(=O)Nc2nccs2)c(=O)c2cc3sc(Cl)cc3n12` [Ex 11, 2-(2-Chloro-5-isopropyl-8-oxothieno[2′,3′:4,5]pyrrolo[1,2-d][1,2,4]triazin-7(8H)-yl)-N-(thiazol-2-yl)acetamide], with 62.5 nM. Then `CC(C)c1nn(CC(=O)N[C@H]2C[C@@H](O)C2)c(=O)c2cc3sc(Cl)cc3n12` [Ex 109, 2-(2-Chloro-5-isopropyl-8-oxothieno[2′,3′:4,5]pyrrolo[1,2-d][1,2,4]triazin-7(8H)-yl)-N-((1s,3s)-3-hydroxycyclobutyl)acetamide], with 221 nM; and `CC(C)c1nn(CC(=O)Nc2ccc(F)nc2)c(=O)c2cc3sc(Cl)cc3n12` [Ex 14, 2-(2-Chloro-5-isopropyl-8-oxothieno[2′,3′:4,5]pyrrolo[1,2-d][1,2,4]triazin-7(8H)-yl)-N-(6-fluoropyridin-3-yl)acetamide], with 90.6 nM.

`CC(C)c1nn(CC(=O)N[C@@H]2CCC(=O)N(C)C2)c(=O)c2cc3scnc3n12` [Ex 97, (R)-2-(5-Isopropyl-8-oxothiazolo[5′,4′:4,5]pyrrolo[1,2-d][1,2,4]triazin-7(8H)-yl)-N-(1-methyl-6-oxopiperidin-3-yl)acetamide] yielded an IC50 of 18.3 nM. Under `CC(C)(O)c1nn(CC(=O)N[C@@H]2CCCN(C3CC3)C2)c(=O)c2cc3sc(Cl)cc3n12` [Ex 126, (R)-2-(2-Chloro-5-(2-hydroxypropan-2-yl)-8-oxothieno[2′,3′:4,5]pyrrolo[1,2-d][1,2,4]triazin-7(8H)-yl)-N-(1-cyclopropylpiperidin-3-yl)acetamide] stands 0.6 nM; under `CC(C)c1nn(CC(=O)NCCC(C)(C)O)c(=O)c2cc3sc(F)cc3n12` [Ex 84, 2-(2-Fluoro-5-isopropyl-8-oxothieno[2′,3′:4,5]pyrrolo[1,2-d][1,2,4]triazin-7(8H)-yl)-N-(3-hydroxy-3-methylbutyl)acetamide], 12.9 nM. Then `Cc1nc2c(cc3c(=O)n(CC(=O)N[C@H]4CC[C@H](C(=O)O)CC4)nc(C(C)C)n32)s1` [Ex 118, (1r,4r)-4-(2-(5-Isopropyl-2-methyl-8-oxothiazolo[5′,4′:4,5]pyrrolo[1,2-d][1,2,4]triazin-7(8H)-yl)acetamido)cyclohexane-1-carboxylic acid], with 78.8 nM. Under `CC(C)c1nn(CC(=O)NCCC2(O)CC2)c(=O)c2cc3sc(Cl)cc3n12` [Ex 110, 2-(2-Chloro-5-isopropyl-8-oxothieno[2′,3′:4,5]pyrrolo[1,2-d][1,2,4]triazin-7(8H)-yl)-N-(2-(1-hydroxycyclopropyl)ethyl)acetamide] stands 115 nM.

The molecule `CC(C)(O)c1nn(CC(=O)N[C@H]2CC[C@H](C(=O)O)CC2)c(=O)c2cc3sc(Cl)cc3n12` [Ex 122, (1r,4r)-4-(2-(2-Chloro-5-(2-hydroxypropan-2-yl)-8-oxothieno[2′,3′:4,5]pyrrolo[1,2-d][1,2,4]triazin-7(8H)-yl)acetamido)cyclohexane-1-carboxylic acid] displayed an IC50 of 267 nM. Under `CC(C)c1nn(CC(=O)N[C@H]2CC[C@H](C(=O)O)CC2)c(=O)c2cc3sc(F)cc3n12` [Ex 120, (1r,4r)-4-(2-(2-Fluoro-5-isopropyl-8-oxothieno[2′,3′:4,5]pyrrolo[1,2-d][1,2,4]triazin-7(8H)-yl)acetamido)cyclohexane-1-carboxylic acid] stands 17.2 nM; under `CC(C)c1nn(CC(=O)Nc2cncs2)c(=O)c2cc3sc(Cl)cc3n12` [Ex 12, 2-(2-Chloro-5-isopropyl-8-oxothieno[2′,3′:4,5]pyrrolo[1,2-d][1,2,4]triazin-7(8H)-yl)-N-(thiazol-5-yl)acetamide], 23.7 nM. On to `CC(C)c1nn(CC(=O)N[C@H]2CC[C@H](C(=O)O)CC2)c(=O)c2cc3scnc3n12` [Ex 119, (1r,4r)-4-(2-(5-Isopropyl-8-oxothiazolo[5′,4′:4,5]pyrrolo[1,2-d][1,2,4]triazin-7(8H)-yl)acetamido)cyclohexane-1-carboxylic acid], for which the 50% inhibitory concentration (IC50) was determined as 40.5 nM. Against the preceding molecule, the IC50 is about 1.7-fold higher.

The molecule `CC(C)c1nn(CC(=O)Nc2ncncc2Cl)c(=O)c2cc3sc(Cl)cc3n12` [Ex 16, 2-(2-Chloro-5-isopropyl-8-oxothieno[2′,3′:4,5]pyrrolo[1,2-d][1,2,4]triazin-7(8H)-yl)-N-(5-chloropyrimidin-4-yl)acetamide] came in with an IC50 of 57.3 nM. Under `CC(C)(O)c1nn(CC(=O)Nc2ccc3cc[nH]c3c2)c(=O)c2cc3sc(Cl)cc3n12` [Ex 67, 2-(2-Chloro-5-(2-hydroxypropan-2-yl)-8-oxothieno[2′,3′:4,5]pyrrolo[1,2-d][1,2,4]triazin-7(8H)-yl)-N-(1H-indol-6-yl)acetamide] stands 212 nM; under `CC(C)c1nn(CC(=O)N[C@]2(C)C[C@@H](O)C2)c(=O)c2cc3sc(Cl)cc3n12` [Ex 23, 2-(2-Chloro-5-isopropyl-8-oxothieno[2′,3′:4,5]pyrrolo[1,2-d][1,2,4]triazin-7(8H)-yl)-N-((1r,3r)-3-hydroxy-1-methylcyclobutyl)acetamide], 452 nM. Then `CC(C)(O)c1nn(CC(=O)N[C@@H]2CCNC2)c(=O)c2cc3sc(Cl)cc3n12` [Ex 106, (R)-2-(2-Chloro-5-(2-hydroxypropan-2-yl)-8-oxothieno[2′,3′:4,5]pyrrolo[1,2-d][1,2,4]triazin-7(8H)-yl)-N-(pyrrolidin-3-yl)acetamide], with 2180 nM. Then `CC(C)c1nn(CC(=O)Nc2ncncc2F)c(=O)c2cc3sc(Cl)cc3n12` [Ex 15, 2-(2-Chloro-5-isopropyl-8-oxothieno[2′,3′:4,5]pyrrolo[1,2-d][1,2,4]triazin-7(8H)-yl)-N-(5-fluoropyrimidin-4-yl)acetamide], with 5.4 nM. With `CC(C)c1nn(CC(=O)Nc2cccnc2Cl)c(=O)c2cc3sc(Cl)cc3n12` [Ex 13, 2-(2-Chloro-5-isopropyl-8-oxothieno[2′,3′:4,5]pyrrolo[1,2-d][1,2,4]triazin-7(8H)-yl)-N-(2-chloropyridin-3-yl)acetamide], the IC50 worked out at 94 nM. Under `CC(C)c1nn(CC(=O)N[C@H]2CCN(C)C2)c(=O)c2cc3sc(Cl)cc3n12` [Ex 105, (S)-2-(2-Chloro-5-isopropyl-8-oxothieno[2′,3′:4,5]pyrrolo[1,2-d][1,2,4]triazin-7(8H)-yl)-N-(1-methylpyrrolidin-3-yl)acetamide] stands 838 nM; under `CC(C)c1nn(CC(=O)Nc2cc(C(F)F)ncn2)c(=O)c2cc3sc(Cl)cc3n12` [Ex 112, 2-(2-Chloro-5-isopropyl-8-oxothieno[2′,3′:4,5]pyrrolo[1,2-d][1,2,4]triazin-7(8H)-yl)-N-(6-(difluoromethyl)pyrimidin-4-yl)acetamide], 253 nM; under `Cc1n[nH]c2cc(NC(=O)Cn3nc(C(C)(C)O)n4c(cc5sc(Cl)cc54)c3=O)ccc12` [Ex 66, 2-(2-Chloro-5-(2-hydroxypropan-2-yl)-8-oxothieno[2′,3′:4,5]pyrrolo[1,2-d][1,2,4]triazin-7(8H)-yl)-N-(3-methyl-1H-indazol-6-yl)acetamide], 7.8 nM.

Molecule `CC(C)c1nn(CC(=O)NC2CCCC2)c(=O)c2cc3sc(Cl)cc3n12` [Ex 101, 2-(2-chloro-5-Isopropyl-8-oxothieno[2′,3′:4,5]pyrrolo[1,2-d][1,2,4]triazin-7(8H)-yl)-N-cyclopentylacetamide] registered an IC50 of 381 nM. Under `CC(C)c1nn(CC(=O)NCCC(C)(C)O)c(=O)c2cc3scnc3n12` [Ex 94, N-(3-Hydroxy-3-methylbutyl)-2-(5-isopropyl-8-oxothiazolo[5′,4′:4,5]pyrrolo[1,2-d][1,2,4]triazin-7(8H)-yl)acetamide] stands 64.9 nM; under `CC(C)c1nn(CC(=O)NC2CCCC2)c(=O)c2cc3scnc3n12` [Ex 98, N-Cyclopentyl-2-(5-isopropyl-8-oxothiazolo[5′,4′:4,5]pyrrolo[1,2-d][1,2,4]triazin-7(8H)-yl)acetamide], 271 nM; under `CC(C)c1nn(CC(=O)N[C@H]2C[C@](C)(O)C2)c(=O)c2cc3sc(F)cc3n12` [Ex 86, 2-(2-Fluoro-5-isopropyl-8-oxothieno[2′,3′:4,5]pyrrolo[1,2-d][1,2,4]triazin-7(8H)-yl)-N-((1r,3r)-3-hydroxy-3-methylcyclobutyl)acetamide], 41.2 nM. Under `CC(C)c1nn(CC(=O)N[C@H]2C[C@](C)(O)C2)c(=O)c2cc3sc(Cl)cc3n12` [Ex 71, 2-(2-Chloro-5-isopropyl-8-oxothieno[2′,3′:4,5]pyrrolo[1,2-d][1,2,4]triazin-7(8H)-yl)-N-((1r,3r)-3-hydroxy-3-methylcyclobutyl)acetamide] stands 15.9 nM.
